One data set concerns the target T1, CYP2C9 (Homo sapiens, UniProt P11712).
T1 construct: from tissue
Nature of the data set: Cocktail drug-drug interaction study: tolbutamide pharmacokinetics as probe of CYP2C9 activity. It is filed as in vivo. As to conditions: co-administration of 500 mg Compound A with tolbutamide 500 mg. From the text:
24 healthy male subjects aged between 20 and 43 years received the following dosing regimens in random order: • 1.
The three treatments were separated by a wash-out period of 7 to 21 days.

A further data set deals with thrombin (Homo sapiens, UniProt P00734). The settings on record: free amidine metabolite of Compound A; cited from earlier work.

Data on two molecules can be found in US20090061000A1, “PHARMACEUTICAL FORMULATION USE 030” (AstraZeneca AB, priority 2007, published 2009).

T1 sequence (P11712 whole entry): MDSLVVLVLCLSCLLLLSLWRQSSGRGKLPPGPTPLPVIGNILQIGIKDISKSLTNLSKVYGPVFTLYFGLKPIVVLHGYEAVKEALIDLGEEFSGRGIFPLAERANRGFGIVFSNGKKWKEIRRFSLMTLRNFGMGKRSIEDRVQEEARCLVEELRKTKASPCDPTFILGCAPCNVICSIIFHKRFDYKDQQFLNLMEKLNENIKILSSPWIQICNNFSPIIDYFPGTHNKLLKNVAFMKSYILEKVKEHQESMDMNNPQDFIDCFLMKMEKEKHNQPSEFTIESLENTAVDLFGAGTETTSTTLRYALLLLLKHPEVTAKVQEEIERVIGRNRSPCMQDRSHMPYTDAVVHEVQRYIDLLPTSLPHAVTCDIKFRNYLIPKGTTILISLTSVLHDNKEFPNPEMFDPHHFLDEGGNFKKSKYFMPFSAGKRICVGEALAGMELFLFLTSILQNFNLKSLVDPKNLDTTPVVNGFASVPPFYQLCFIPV

In the case of `CO/N=C(\N)c1ccc(CNC(=O)[C@@H]2CCN2C(=O)[C@H](O)c2cc(Cl)cc(OC(F)F)c2)cc1` [Compound A, Ph(3-Cl)(5-OCHF2)—(R)CH(OH)C(O)—(S)Aze-Pab(OMe)], on CYP2C9, the “effect on CYP2C9 activity (influence on the pharmacokinetics of tolbutamide)” value was “no effect”.

Take `N=C(N)c1ccc(CNC(=O)[C@@H]2CCN2C(=O)[C@H](O)c2cc(Cl)cc(OC(F)F)c2)cc1` [Compound C, Ph(3-Cl)(5-OCHF2)—(R)CH(OH)C(O)—(S)Aze-Pab]: the inhibition of thrombin entry on thrombin was “has been found to inhibit thrombin”.
